According to article PMC5834442, “Identifying inhibitors of the Leishmania inositol phosphorylceramide synthase with antiprotozoal activity using a yeast-based assay and ultra-high throughput screening platform” (Scientific Reports, 2018):
Entries after “also recorded” stand apart in the source; their conditions may differ. Like-named read-outs stand apart in the source and are kept apart here.

Columns and labels:
LmjFIPCS = molecular target: T1, LmjFIPCS (Leishmania major, UniProt E9AFX2); assay: Biochemical LmjFIPCS assay with CHAPS-washed microsomal membranes; conditions: for IC50: read-out: pIC50 against LmjFIPCS in vitro (converted)
T1 construct: The complete open reading frames of LmjFIPCS and AUR1p was amplified from genomic DNA; made in house
T1 sequence (E9AFX2 whole entry): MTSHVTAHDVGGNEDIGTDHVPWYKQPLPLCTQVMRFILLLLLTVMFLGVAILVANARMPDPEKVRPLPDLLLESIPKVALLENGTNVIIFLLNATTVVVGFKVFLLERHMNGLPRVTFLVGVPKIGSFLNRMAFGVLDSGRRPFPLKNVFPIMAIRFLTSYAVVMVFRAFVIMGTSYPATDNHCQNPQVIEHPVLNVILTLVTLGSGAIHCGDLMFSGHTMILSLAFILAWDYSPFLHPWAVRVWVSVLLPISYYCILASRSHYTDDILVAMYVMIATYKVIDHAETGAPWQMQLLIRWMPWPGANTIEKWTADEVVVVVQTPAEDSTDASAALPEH
Protocol: Utilizing the availability of an in-house designed and validated biochemical assay for LmjFIPCS[19],[22], following re-synthesis in the free-base form (Aptuit, Verona, Italy) the two benzazepane hits were biochemically analyzed in a dose response assay (8 compound concentrations between 100 μM and 46 nM; Fig. 5). […].
Microsomal material was prepared and CHAPS washed from α ade^−.lys^−.leu^−.Δaur1^−.pESC-LEU_ LmjFIPCS as previously described[19],[22]. Briefly, each compound at the desired concentration was incubated, in at least triplicate, in 96-well plates (Corning) in phosphate buffer (71.4 mM, pH 7.0) with PI (100 µM, final concentration, Avanti Polar Lipids), CHAPS (600 µM, Sigma-Aldrich) and CHAPS-washed microsomal membranes (0.6 U enzyme per reaction) for 15 minutes at 30 °C. NBD-C6-ceramide (5 µM; ThermoFisher) was added, final volume of 40 µl per well, and the plates incubated at 30 °C for a further 25 minutes. […]. Analyses were carried out using GraphPad Prism 7.

[1] = tested on: intra-macrophage Leishmania donovani amastigotes; assay: Intramacrophage Leishmania donovani assay (high content imaging); type: cell-based; conditions: for IC50: Leishmania donovani
L. major Δlcb2 mutant = assay: L. major axenic cell assay (alamarBlue), sphingolipid mutant Δlcb2; type: cell-based; conditions: Leishmania major, 72 h, read-out: pIC50 against L. major Δlcb2 mutant (converted)
Text: (§1) However, whilst compound 1 was antiprotozoal and a potent IPC synthase inhibitor, it was unclear whether the mode of action was on-target. To analyze this further, the in-house availability of a sphingolipid mutant L. major (Δlcb2) was exploited. This line[24] lacks serine palmitoyltransferase activity, and whilst LmjFIPCS is still present it is redundant in the absence of in situ substrate. […] […]. Therefore, it is likely that off-target activity has a role in the antileishmanial activity of this benzazepane.
(§2) From a previously described protocol, L. major (MHOM/IL/81/Friedlin, wild type and ΔLCB2 mutant)[24] were added to 96-well plates (Corning) at 1 × 10^4 ml^−1 in growth media with appropriate concentrations of compounds and controls (vehicle and assay media alone, with the robustness of the platform indicated by Z’ values > 0.5)[29] in 100 µl. […]. Analyses were carried out using GraphPad Prism 7.

[2] = tested on: L. donovani (MHOM/SD/62/1S-CL2D, LdBOB) axenic amastigotes; assay: Leishmania donovani axenic amastigote dose response assay (resazurin); type: cell-based
[3] = tested on: L. major (MHOM/IL/81/Friedlin) wild type; assay: L. major axenic cell assay (alamarBlue), wild type; type: cell-based; conditions: Leishmania major; −logIC50 M; 72 hours; read-out: pIC50 against wild type Leishmania major (converted)
Text: as §1, §2

in cellulo LmjFIPCS = molecular target: T2, in cellulo LmjFIPCS (Leishmania major, UniProt E9AFX2); assay: In cellulo IPC synthase assay (BODIPY FL C5-ceramide incorporation into IPC, HPTLC); type: cell-based; conditions: L. major ΔLCB2, 10 μM of compound, compared with compound 1
T2 construct: endogenous in cells; host or cells: L. major (MHOM/IL/81/Friedlin) Δlcb2 mutant
T2 sequence (E9AFX2 whole entry): as above
Protocol: Figure 7 In cellulo activity against LmjFIPCS. […] L. major ΔLCB2 treated with 10 μM of compound prior to metabolic labelling with BODIPY FL C5-ceramide. Inhibition of the incorporation of label into IPC was measured following HPTLC in comparison with a control (vehicle treated). […]. P = 0.006 in students’ t-test indicating the difference is significant (**≤ 0.01).
The L. major Δlcb2 mutant, maintained in Schneider’s media (Sigma-Aldrich) with 15% sera (ThermoFisher), were washed and 200 µl, at 1 × 10^7 ml^−1, incubated in serum free media for 60 minutes at 26 °C before the addition of 10 µM of the compounds, in at least triplicate, and further incubation for 18 hours. Subsequently, the reaction was initiated by the addition of BODIPY FL C5-ceramide complexed to BSA (1.25 µl of 0.5 mM, ThermoFisher). Following further incubation at 26 °C for 1 hour, the lipids were extracted by phase separation in chloroform:methanol:water (10:10:3, 200 µl) and fractionated on HTPLC plates, as previously. The fluorescence was read at Ex475/Em520 using a Fuji FLA-3000 plate reader and AIDA Image Analyser software (version 3.52).

THP-1 macrophages = assay: Host cell toxicity in the intramacrophage assay; type: cell-based, human; conditions: for IC50: Homo sapiens, THP-1 host cells in intramacrophage assay, read-out: pIC50 THP-1 (converted); for pSI v THP-1: selectivity: pIC50 InMac minus pIC50 THP-1
HepG2 cells = assay: Mammalian cell cytotoxicity assay (CellTiter-Glo); type: cell-based, human; conditions: for IC50: Homo sapiens, -logIC50 mol against HepG2, read-out: PIC50 HepG2 (converted); for pSI v HepG2: selectivity: pIC50 axenic minus pIC50 HepG2
[4] = −logIC50 M, biochemical assay, at least 3 independent experiments
[5] = −logIC50 M, L. donovani infected THP-1 macrophages, 96 hours, read-out: pIC50 against intra-macrophage L. donovani amastigotes (converted)
[6] = −logIC50 M, 72 hours, read-out: pIC50 against axenic L. donovani amastigotes (converted)
[7] = intramacrophage L. donovani, read-out: pIC50 InMac (converted)
[8] = -logIC50 mol against L. donovani (LdBOB) axenic amastigotes, read-out: pIC50 Axenic (converted)

O=S(=O)(c1ccc2c(c1)CCN(Cc1cccnc1)CC2)n1cccc1 [compound 6]
pIC50 against LmjFIPCS in vitro (LmjFIPCS; [4]): lost activity

O=S(=O)(c1ccc2c(c1)CCN(Cc1ccc(F)cc1)CC2)n1cccc1 [compound 1]
IC50 [1, 5]: 3.16 µM
IC50 (L. major Δlcb2 mutant): 3.16 µM
IC50 [2, 6]: 25.1 nM
IC50 (LmjFIPCS; [4]): 158 nM
IC50 [3]: 3.16 µM

O=S(=O)(c1ccc2c(c1)CCN(Cc1ccc(F)cc1)CC2)n1ccc2c(F)cccc21 [compound 7]
pIC50 against intra-macrophage L. donovani amastigotes ([1]; −logIC50 M, L. donovani infected THP-1 macrophages, 96 hours): lost
IC50 (L. major Δlcb2 mutant): > 10 µM
maximal inhibition of LmjFIPCS in vitro (LmjFIPCS; even at higher concentrations): ≤ 60%
IC50 (LmjFIPCS; [4]): 63.1 nM
IC50 [3]: 3.16 µM
in cellulo inhibition of IPC synthase activity (incorporation of BODIPY FL C5-ceramide into IPC) (in cellulo LmjFIPCS): considerably greater in cellulo inhibition of IPC synthase activity than compound 1; also recorded: greater activity against in cellulo LmjFIPCS than compound 1

O=S(=O)(c1ccc2c(c1)CCN(Cc1cccnc1)CC2)n1ccc2c(F)cccc21 [compound 2]
IC50 [1, 5]: 2 µM
IC50 [2, 6]: 398 nM
IC50 (LmjFIPCS; [4]): 6310 nM

CS(=O)(=O)c1oc(-c2ccc(F)cc2)nc1S(=O)(=O)c1ccc(Cl)cc1 [ST/1032211]
IC50 [1, 7]: 4.27 µM
IC50 [2, 8]: 437 nM
IC50 (THP-1 macrophages): 3.63 µM
pSI v THP-1 (THP-1 macrophages): -0.07
IC50 (HepG2 cells): 17.4 µM
pSI v HepG2 (HepG2 cells): 1.60

CC(=O)N1N=C(c2ccco2)OC1COc1ccc(Cl)cc1C (stereo not drawn) [ST/1451140]
IC50 [1, 7]: > 50.1 µM
IC50 [2, 8]: 6920 nM
IC50 (THP-1 macrophages): > 50.1 µM
pSI v THP-1 (THP-1 macrophages): 0.00
IC50 (HepG2 cells): > 100 µM
pSI v HepG2 (HepG2 cells): 1.16

CN(C)S(=O)(=O)c1ccc(Cl)c(NS(=O)(=O)c2ccc(C(C)(C)C)cc2)c1 [ST/1238223]
IC50 [1, 7]: > 50.1 µM
IC50 [2, 8]: 6760 nM
IC50 (THP-1 macrophages): > 50.1 µM
pSI v THP-1 (THP-1 macrophages): 0.00
IC50 (HepG2 cells): > 100 µM
pSI v HepG2 (HepG2 cells): 1.17

Cc1cc(C)n2nc(S(=O)(=O)Nc3ccccc3[N+](=O)[O-])nc2n1 [ST/512740]
IC50 [1, 7]: > 50.1 µM
IC50 [2, 8]: 9330 nM
IC50 (THP-1 macrophages): > 50.1 µM
pSI v THP-1 (THP-1 macrophages): 0.00
IC50 (HepG2 cells): > 100 µM
pSI v HepG2 (HepG2 cells): 1.03

CNC(=O)c1ccsc1NC(=O)c1ccc([N+](=O)[O-])s1 [ST/492114]
IC50 [1, 7]: 1.41 µM
IC50 [2, 8]: 891 nM
IC50 (THP-1 macrophages): > 50.1 µM
pSI v THP-1 (THP-1 macrophages): 1.55
IC50 (HepG2 cells): > 100 µM
pSI v HepG2 (HepG2 cells): 2.05
